Where a name gives a salt, the structure may show the parent alone. Read-outs that look alike come from different tables or passages of the source.
Columns and labels:
[1] = system: asynchronous 3D7 chloroquine-sensitive P. falciparum infected red blood cells; assay: Labeled hypoxanthine incorporation assay (in vitro anti-malarial activity); format: cell-based; settings: Plasmodium falciparum, 3D7, Erythrocyte, read-out: IC50 assessed on Plasmodium Falciparum
[2] = system: Toxoplasma gondii RH-β1 strain; assay: microbe, parasite or virus in culture; format: cell-based; settings: Toxoplasma gondii, read-out: IC50 assessed on Toxoplama Gondii
[3] = 3D7 chloroquine-sensitive strain, infected RBC, 48 h contact, [3H]-hypoxanthine incorporation, two independent experiments in duplicates

SMILES | IC50 [1, 3] [nM] | IC50 [2] [nM] | IC50 [1] [nM]
Cn1c(CN(CCOC(=O)N2CCC(n3c(=O)[nH]c4ccccc43)CC2)Cc2ccccc2)cc2ccccc21 [Compound 132, 2-(benzyl((1-methyl-1H-indol-2-yl)methyl)amino)ethyl 4-(2-oxo-2,3-dihydro-1H-benzo[d]imidazol-1-yl)piperidine-1-carboxylate hydrochloride] | 4200 | 1200 | –
C[C@@H](COC(=O)N1CCC(n2c(=O)n(-c3ccccc3)c3ccccc32)CC1)N(Cc1ccccc1)Cc1ccccc1 [Compound 75, (S)-2-(dibenzylamino)propyl 4-(1,2-dihydro-2-oxo-1-phenylbenzo[d]imidazol-3-yl)piperidine-1-carboxylate] | 2290 | 3500 | –
C[C@@H](COC(=O)N1CCC(Nc2cccc(F)c2)CC1)N(Cc1ccccc1)Cc1ccccc1 [Compound 84, (S)-2-(dibenzylamino)propyl 4-(3-fluorophenylamino)piperidine-1-carboxylate] | – | 5500 | 6740
C[C@@H](COC(=O)N1CCC(Nc2ccc(Cl)c(Cl)c2)CC1)N(Cc1ccccc1)Cc1ccccc1 [Compound 86, (S)-2-(dibenzylamino)propyl 4-(3,4-dichlorophenylamino)piperidine-1-carboxylate] | – | 3750 | 7250
C[C@@H](COC(=O)N1CCCC(n2c(=O)[nH]c3ccccc32)C1)N(Cc1ccccc1)Cc1ccccc1 (stereo partly drawn) [Compound 16, (S)-2-(dibenzylamino)propyl 3-(1,2-dihydro-2-oxobenzo[d]imidazol-3-yl)piperidine-1-carboxylate] | 2810 | 2350 | –
C[C@@H](COC(=O)N1CCC(n2c(=O)[nH]c3ccccc32)CC1)N(Cc1ccccc1)Cc1ccccc1 [Compound 25, (S)-2-(dibenzylamino)propyl 4-(1,2-dihydro-2-oxobenzo[d]imidazol-3-yl)piperidine-1-carboxylate] | 4900 | 14000 | –
C[C@@H](COC(=O)N1CCC(n2c(=O)[nH]c3ccccc32)CC1)N(Cc1ccccc1)Cc1cccc(Cl)c1 [Compound 128, (S)-2-(benzyl(3-chlorobenzyl)amino)propyl 4-(2-oxo-2,3-dihydro-1H-benzo[d]imidazol-1-yl)piperidine-1-carboxylate hydrochloride] | 2060 | 5000 | –
Cc1cccc(S(=O)(=O)N(c2ccccc2)C2CCN(C(=O)OC[C@H](C)N(Cc3ccccc3)Cc3ccccc3)CC2)c1 [Compound 168, (S)-2-(dibenzylamino)propyl 4-(N-phenyl-3-methylphenylsulfonamido)piperidine-1-carboxylate] | 483 | 2900 | –
O=C(OC[C@H](c1ccccc1)N(Cc1ccccc1)Cc1ccccc1)N1CCC(n2c(=O)[nH]c3ccccc32)CC1 [Compound 112, (S)-2-(dibenzylamino)-2-phenylethyl 4-(1,2-dihydro-2-oxobenzo[d]imidazol-3-yl)piperidine-1-carboxylate] | 500 | 3750 | –
C[C@@H](COC(=O)N1CCC(n2c(=O)[nH]c3cc(Cl)ccc32)CC1)N(Cc1ccccc1)Cc1ccccc1 [Compound 38, (S)-2-(dibenzylamino)propyl 4-(6-chloro-1,2-dihydro-2-oxobenzo[d]imidazol-3-yl)piperidine-1-carboxylate] | 4680 | 1000 | –
O=C(OCCCN(Cc1ccccc1)Cc1ccccn1)N1CCC(n2c(=O)[nH]c3ccccc32)CC1 [Compound 135, 3-(benzyl(pyridin-2-ylmethyl)amino)propyl 4-(2-oxo-2,3-dihydro-1H-benzo[d]imidazol-1-yl)piperidine-1-carboxylate hydrochloride] | 3600 | 2300 | –
COc1ccc(S(=O)(=O)N(c2ccccc2)C2CCN(C(=O)OC[C@H](C)N(Cc3ccccc3)Cc3ccccc3)CC2)cc1 [Compound 156, (S)-2-(dibenzylamino)propyl 4-(N-phenyl-4-methoxyphenylsulfonamido)piperidine-1-carboxylate] | 783 | 4000 | –
CCCc1ccc(S(=O)(=O)n2c(=O)n(C3CCN(C(=O)OC[C@H](C)N(Cc4ccccc4)Cc4ccccc4)CC3)c3ccccc32)cc1 [Compound 55, (S)-2-(dibenzylamino)propyl 4-(2-oxo-3-(4-propylphenylsulfonyl)-2,3-dihydro-1H-benzo[d]imidazol-1-yl)piperidine-1-carboxylate] | 9100 | 5500 | –
O=C(CCCC[C@@H]1SC[C@@H]2NC(=O)N[C@@H]21)NCCn1c(=O)n(C2CCN(C(=O)OC[C@H](Cc3ccccc3)N(Cc3ccccc3)Cc3ccccc3)CC2)c2ccccc21 [Compound 76, (S)-2-(dibenzylamino)-3-phenylpropyl 4-(3-(2 aminoethyl)-2-oxo-2,3-dihydro-1H-benzo[d]imidazol-1-yl)piperidine-1-carboxylate D-biotin amid] | 480 | 2600 | –
C[C@@H](COC(=O)N1CCC(n2cnc3ccccc32)CC1)N(Cc1ccccc1)Cc1ccccc1 [Compound 3, (S)-2-(dibenzylamino)propyl 4-(1H-benzo[d]imidazol-1-yl)piperidine-1-carboxylate] | 1810 | 8000 | –
O=C(OCCN(Cc1ccccc1)Cc1cccc(Oc2ccccc2)c1)N1CCC(n2c(=O)[nH]c3ccccc32)CC1 [Compound 123, 2-(benzyl(3-phenoxybenzyl)amino)ethyl 4-(2-oxo-2,3-dihydro-1H-benzo[d]imidazol-1-yl)piperidine-1-carboxylate hydrochloride] | 1420 | 3700 | –
O=c1[nH]c2ccccc2n1C1CCN(C(=S)OCCOCc2ccccc2)CC1 [Compound 47, O-2-(benzyloxy)ethyl 4-(1,2-dihydro-2-oxobenzo[d]imidazol-3-yl)piperidine-1-carbothioate] | 23200 | 1130 | –
O=C(OC[C@H](Cc1ccccc1)N(Cc1ccccc1)Cc1ccccc1)N1CCC(n2c(=O)[nH]c3ccccc32)CC1 [Compound 26, (S)-2-(dibenzylamino)-3-phenylpropyl 4-(1,2-dihydro-2-oxobenzo[d]imidazol-3-yl)piperidine-1-carboxylate] | 1400 | 4800 | –
C[C@@H](COC(=O)N1CCC(n2c(=O)n(CCCC(=O)O)c3ccccc32)CC1)N(Cc1ccccc1)Cc1ccccc1 [Compound 78, (S)-4-(3-(1-((2-(dibenzylamino)propoxy)carbonyl)piperidin-4-yl)-2-oxo-2,3-dihydro-1H-benzo[d]imidazol-1-yl)butanoic acid] | 6290 | 1700 | –
C[C@@H](COC(=O)N1CCC(N(c2ccccc2)S(=O)(=O)c2ccccc2)CC1)N(Cc1ccccc1)Cc1ccccc1 [Compound 90, (S)-2-(dibenzylamino)propyl 4-(N-phenylphenylsulfonamido)piperidine-1-carboxylate] | 525 | 1750 | –
C[C@@H](COC(=O)N1CCC(n2c(=O)n(CCNC(=O)OC(C)(C)C)c3ccccc32)CC1)N(Cc1ccccc1)Cc1ccccc1 [Compound 73, (S)-2-(dibenzylamino)propyl 4-(3-(2-tert-butyloxycarbonylaminoethyl)-2-oxo-2,3-dihydro-1H-benzo[d]imidazol-1-yl)piperidine-1-carboxylate] | 1420 | 3000 | –
C[C@@H](COC(=O)N1CCC(n2c(=O)[nH]c3ccccc32)CC1)N(Cc1ccccc1)Cc1ccccn1 [Compound 140, (S)-2-(benzyl(pyridin-2-ylmethyl)amino)propyl 4-(2-oxo-2,3-dihydro-1H-benzo[d]imidazol-1-yl)piperidine-1-carboxylate hydrochloride] | 3860 | 1800 | –
COc1ccc(NC2CCN(C(=O)OC[C@H](C)N(Cc3ccccc3)Cc3ccccc3)CC2)cc1 [Compound 81, (S)-2-(dibenzylamino)propyl 4-(4-methoxyphenylamino)piperidine-1-carboxylate] | 8420 | 10000 | –
CCOC(=O)C1CN(C(=O)OC[C@H](C)N(Cc2ccccc2)Cc2ccccc2)CCC1n1c(=O)[nH]c2ccccc21 (stereo partly drawn) [Compound 18, 1-(S)-2-(dibenzylamino)propyl 3-ethyl 4-(1,2-dihydro-2-oxobenzo[d]imidazol-3-yl)piperidine-1,3-dicarboxylate] | 1520 | 2810 | –
O=C(OC[C@H](Cc1ccccc1)N(Cc1ccccc1)Cc1ccccc1)N1CCC(Nc2ccccc2)CC1 [Compound 152, (S)-2-(dibenzylamino)-3-phenylpropyl 4-(phenylamino)piperidine-1-carboxylate] | – | 3800 | 922
CC(C)C[C@@H](COC(=O)N1CCC(n2c(=O)[nH]c3ccccc32)CC1)N(Cc1ccccc1)Cc1ccccc1 [Compound 108, (S)-2-(dibenzylamino)-4-methylpentyl 4-(1,2-dihydro-2-oxobenzo[d]imidazol-3-yl)piperidine-1-carboxylate] | 2610 | 3750 | –
O=C(OCCC1CCN(Cc2ccccc2)CC1)N1CCC(n2c(=O)[nH]c3ccccc32)CC1 [Compound 40, 2-(1-benzylpiperidin-4-yl)ethyl 4-(1,2-dihydro-2-oxobenzo[d]imidazol-3-yl)piperidine-1-carboxylate] | 8160 | 980 | –
CC(=O)n1c(=O)n(C2CCN(C(=O)OC[C@H](C)N(Cc3ccccc3)Cc3ccccc3)CC2)c2ccccc21 [Compound 65, (S)-2-(dibenzylamino)propyl 4-(1-acetyl-1,2-dihydro-2-oxobenzo[d]imidazol-3-yl)piperidine-1-carboxylate] | 2940 | 990 | –
O=C(OCCN(Cc1ccccc1)Cc1ccnc2ccccc12)N1CCC(n2c(=O)[nH]c3ccccc32)CC1 [Compound 131, 2-(benzyl(quinolin-4-ylmethyl)amino)ethyl 4-(2-oxo-2,3-dihydro-1H-benzo[d]imidazol-1-yl)piperidine-1-carboxylate hydrochloride] | 2950 | 1050 | –
